Data published in patent publication US10597388B2, “Pyridazinone herbicides” (FMC CORPORATION, priority 2014, dated 2020).
Like-named read-outs stand apart in the source and are kept apart here.

How the values were obtained:
[1] = tested on: pigweed (Amaranthus retroflexus); assay: Test A greenhouse herbicide test, pre- and postemergence; assay type: in vivo; details: Amaranthus retroflexus, 240 h, 1000 g ai/ha, 0 to 100 scale
Procedure, shortened: (§1)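 Seeds sown in loam–sand blend got a preemergence directed soil spray of compound in non-phytotoxic solvent with surfactant. Postemergence treatment was given at 2–10 cm, one- to two-leaf stage. After ~10 d in greenhouse, injury was rated visually vs untreated controls, 0 (no effect) to 100 (complete control).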

[2] = tested on: foxtail, giant (giant foxtail, Setaria faberii); assay: as above; assay type: in vivo; details: Setaria faberi, 240 h, 1000 g ai/ha, 0 to 100 scale
Procedure, shortened: as §1

[3] = tested on: barnyardgrass (Echinochloa crus-galli); assay: as above; assay type: in vivo; details: Echinochloa crus-galli, 240 h, 1000 g ai/ha, 0 to 100 scale
Procedure, shortened: as §1

[4] = tested on: wheat (Triticum aestivum); assay: as above; assay type: in vivo; details: Triticum aestivum, 240 h, 1000 g ai/ha, 0 to 100 scale
Procedure, shortened: as §1

[5] = tested on: momingglory (Ipomoea spp.); assay: as above; assay type: in vivo; details: 240 h, 1000 g ai/ha, 0 to 100 scale
Procedure, shortened: as §1

corn (Zea mays) = assay: as above; assay type: in vivo; details: Zea mays, 240 h, 1000 g ai/ha, 0 to 100 scale
Procedure, shortened: as §1

[6] = tested on: crabgrass, large (large crabgrass, Digitaria sanguinalis); assay: as above; assay type: in vivo; details: 240 h, 1000 g ai/ha, 0 to 100 scale
Procedure, shortened: as §1

[7] = tested on: velvetleaf (Abutilon theophrasti); assay: as above; assay type: in vivo; details: 240 h, 1000 g ai/ha, 0 to 100 scale
Procedure, shortened: as §1

[8] = tested on: ducksalad (Heteranthera limosa); assay: Test B flooded paddy test; assay type: in vivo; details: Heteranthera limosa, 360 h; 250 g ai/ha, Flood; visual rating on scale of 0 to 100 where 0 is no effect and 100 is complete control; 13 to 15 d after treatment; read-out: Plant response rating, Ducksalad
Procedure, shortened: (§2)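 Plants at the 2-leaf stage were flooded to 3 cm above soil, and test compounds were applied directly into the paddy water, which was held at that depth throughout. After 13 to 15 d in a greenhouse, injury was rated visually against untreated controls on a 0–100 scale (0 no effect, 100 complete control).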

[9] = tested on: barnyardgrass (Echinochloa crus-galli); assay: Test B flooded paddy test; assay type: in vivo; details: Echinochloa crus-galli, 360 h; 250 g ai/ha, Flood; visual rating on scale of 0 to 100 where 0 is no effect and 100 is complete control; 13 to 15 d after treatment; read-out: Plant response rating, Barnyardgrass
Procedure, shortened: as §2

rice (Oryza sativa) = assay: Test B flooded paddy test; assay type: in vivo; details: Oryza sativa, 360 h; 250 g ai/ha, Flood; visual rating on scale of 0 to 100 where 0 is no effect and 100 is complete control; 13 to 15 d after treatment; read-out: Plant response rating, Rice
Procedure, shortened: as §2

[10] = tested on: sedge, umbrella (small-flower umbrella sedge, Cyperus difformis); assay: Test B flooded paddy test; assay type: in vivo; details: Cyperus difformis, 360 h; 250 g ai/ha, Flood; visual rating on scale of 0 to 100 where 0 is no effect and 100 is complete control; 13 to 15 d after treatment; read-out: Plant response rating, Sedge, Umbrella
Procedure, shortened: as §2

Cc1nn(C)c(=O)c(-c2c(C)oc3ccccc23)c1O [Compound 4, 5-hydroxy-2,6-dimethyl-4-(2-methyl-3-benzofuranyl)-3 (2H)-pyridazinone]
pest or weed control at 1000 g/ha ([1]; post-emergence, Postemergence, 0 is no effect, 100 is complete control, read-out: Pigweed plant response rating): 50%
pest or weed control at 1000 g/ha ([1]; pre-emergence, Preemergence, 0 no effect, 100 complete control, read-out: Plant response rating, Pigweed): 70%
pest or weed control at 1000 g/ha ([2]; post-emergence, Postemergence, 0 is no effect, 100 is complete control, read-out: Foxtail, Giant plant response rating): 80%
pest or weed control at 1000 g/ha ([2]; pre-emergence, Preemergence, 0 no effect, 100 complete control, read-out: Plant response rating, Foxtail, Giant): 80%
pest or weed control at 1000 g/ha ([3]; post-emergence, Postemergence, 0 is no effect, 100 is complete control, read-out: Barnyardgrass plant response rating): 70%
pest or weed control at 1000 g/ha ([3]; pre-emergence, Preemergence, 0 no effect, 100 complete control, read-out: Plant response rating, Barnyardgrass): 100%
plant injury at 1000 g/ha ([4]; post-emergence, Postemergence, 0 is no effect, 100 is complete control, read-out: Wheat plant response rating): 0%
plant injury at 1000 g/ha ([4]; pre-emergence, Preemergence, 0 no effect, 100 complete control, read-out: Plant response rating, Wheat): 0%
pest or weed control at 1000 g/ha ([5]; post-emergence, Postemergence, 0 is no effect, 100 is complete control, read-out: Morningglory plant response rating): 70%
pest or weed control at 1000 g/ha ([5]; pre-emergence, Preemergence, 0 no effect, 100 complete control, read-out: Plant response rating, Morningglory): 60%
plant injury at 1000 g/ha (corn (Zea mays); post-emergence, Postemergence, 0 is no effect, 100 is complete control, read-out: Corn plant response rating): 0%
Corn plant response rating (crop injury, 0 = no effect, 100 = complete kill) at 1000 g/ha (corn (Zea mays); pre-emergence, Preemergence, 0 no effect, 100 complete control): 10%
pest or weed control at 1000 g/ha ([6]; post-emergence, Postemergence, 0 is no effect, 100 is complete control, read-out: Crabgrass, Large plant response rating): 50%
pest or weed control at 1000 g/ha ([6]; pre-emergence, Preemergence, 0 no effect, 100 complete control, read-out: Plant response rating, Crabgrass, Large): 80%
pest or weed control at 1000 g/ha ([7]; post-emergence, Postemergence, 0 is no effect, 100 is complete control, read-out: Velvetleaf plant response rating): 60%
pest or weed control at 1000 g/ha ([7]; pre-emergence, Preemergence, 0 no effect, 100 complete control, read-out: Plant response rating, Velvetleaf): 40%
pest or weed control at 250 g/ha [8]: 0%
pest or weed control at 250 g/ha [9]: 0%
plant injury at 250 g/ha (rice (Oryza sativa)): 0%
pest or weed control at 250 g/ha [10]: 0%
melting point: 238 to 240 °C
